US20240180900A1, “COMPOUNDS AND METHODS FOR THE TARGETED DEGRADATION OF ANDROGEN RECEPTOR” (Arvinas Operations, Inc., priority 2022, published 2024)

Legend:
VCaP tumor xenograft = test: castrated mouse VCaP xenograft model, tumor growth inhibition; assay type: in vivo; conditions: castrated mice
Method: Treatment groups (n=10 per group) were compared by one-way analysis of variance (ANOVA). Note: ns: not significant, *: p≤0.05, **: p≤0.01, ***: p≤0.001.
The anti-tumor growth effects of Compound A in vivo were evaluated in the castrated mouse VCaP xenograft model. Briefly, 6- to 8-week-old male CB17/scid mice were implanted with 3×10^6 VCaP tumor cells in the flank region. Once the tumors reached a volume of approximately 100 mm^3, the mice were surgically castrated.

[1] = test system: GSPT1, Aiolos, Ikaros, CK1α, and SALL4; test: cereblon neomorphic substrate degradation in Ramos and SK-N-DZ cells; assay type: cell-based; conditions: 1 μM
prostate = test: 10-day prostate involution study in rats; assay type: in vivo, rat; conditions: for Mean (±SEM) prostate weights: 10 days, intact rats
Method: Enzalutamide and Compound A were orally administered once daily at the indicated doses. After 10 days of treatment, the prostate tissue from each rat was isolated and weighed. Treatment groups (n=5 per group) were compared by one way ANOVA. Note: ns: not significant, *: p<0.05, **: p≤0.01.
To substantiate the on-target mechanism of Compound A, a prostate involution study was conducted in rats. […] Twenty-four hours after the last dose, the rats were euthanized, and the prostate organs were isolated and weighed.

AR M750V = biological target: T1, AR M750V (Homo sapiens, UniProt P10275, M750V); test: AR degradation in T-Rex-293 cell line, M750V; assay type: cell-based; conditions: T-Rex-293, ELISA
T1 construct: expressed in transfected cells; host or cells: T-REx-293
T1 sequence (P10275 whole entry M750V): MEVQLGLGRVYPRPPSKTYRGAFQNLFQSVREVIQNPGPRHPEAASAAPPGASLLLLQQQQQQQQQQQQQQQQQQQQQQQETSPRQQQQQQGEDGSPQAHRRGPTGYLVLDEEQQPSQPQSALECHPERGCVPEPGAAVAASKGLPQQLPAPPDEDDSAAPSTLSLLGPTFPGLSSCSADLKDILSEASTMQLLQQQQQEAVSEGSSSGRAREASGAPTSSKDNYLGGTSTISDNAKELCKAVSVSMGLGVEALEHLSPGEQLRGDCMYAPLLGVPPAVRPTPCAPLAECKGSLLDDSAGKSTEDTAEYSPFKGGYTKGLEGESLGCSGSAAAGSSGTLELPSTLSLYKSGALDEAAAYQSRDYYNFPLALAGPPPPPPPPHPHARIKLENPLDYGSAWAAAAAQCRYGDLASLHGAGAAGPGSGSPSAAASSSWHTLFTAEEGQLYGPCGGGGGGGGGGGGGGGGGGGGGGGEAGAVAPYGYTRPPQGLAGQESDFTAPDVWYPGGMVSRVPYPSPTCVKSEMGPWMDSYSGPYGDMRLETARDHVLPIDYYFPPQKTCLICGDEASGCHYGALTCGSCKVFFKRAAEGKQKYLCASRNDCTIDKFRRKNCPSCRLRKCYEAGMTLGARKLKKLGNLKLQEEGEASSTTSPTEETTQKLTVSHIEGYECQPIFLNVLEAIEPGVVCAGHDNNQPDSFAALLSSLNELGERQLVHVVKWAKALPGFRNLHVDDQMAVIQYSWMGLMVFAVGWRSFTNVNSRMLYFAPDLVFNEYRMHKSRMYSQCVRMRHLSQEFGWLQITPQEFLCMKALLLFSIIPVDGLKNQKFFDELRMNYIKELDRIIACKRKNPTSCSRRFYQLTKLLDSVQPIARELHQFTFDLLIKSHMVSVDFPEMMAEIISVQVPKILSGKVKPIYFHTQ
Text: (§1) FIG. 3 is a graph showing Compound A's ability to degrade clinically relevant mutated forms AR.
(§2) To assess the ability of Compound A to degrade variants of the AR, vectors expressing wild-type AR or mutant AR proteins harboring clinically observed mutations in the ligand binding domain (13 with single amino acid changes or 4 with 2 amino acid changes) (Azad A. A., Volik S. V., Wyatt A. W., et al. Androgen receptor gene aberrations in circulating cell-free DNA: biomarkers of therapeutic resistance in castration-resistant prostate cancer. Clin Cancer Res. 2015; 21:2315-2324; Robinson D., Van Allen E. M., Wu Y. M., et al. Integrative clinical genomics of advanced prostate cancer. Cell. 2015; 161:1215-1228; Ledet E. M., Lilly M. B., Sonpavde G., et al. Comprehensive analysis of AR alterations in circulating tumor DNA from patients with advanced prostate cancer. Oncologist.

[2] = biological target: T2, AR (LNCaP cells, AR mutation T878A) (Homo sapiens, UniProt P10275, T878A); test: AR degradation assay in LNCaP cells; assay type: cell-based; conditions: 24 hours of treatment
T2 construct: endogenous in cells; host or cells: LNCaP
T2 sequence (P10275 whole entry T878A): as the sequence (P10275 whole entry M750V) above, with V750M, T878A counted along it
Method: FIG. 2 is an analysis of Compound A in in vitro AR degradation assays conducted in VCaP cells and LNCaP cancer cells that harbor AR amplification and the AR mutation (T878A) mutation, respectively.
To determine the pharmacological effect of Compound A in vitro, AR degradation assays were conducted in VCaP (vertebral-cancer of the prostate) cancer cells and LNCaP (lymph node carcinoma of the prostate) cancer cells that harbor AR amplification and the AR mutation (T878A) mutation, respectively.
To determine the pharmacological effect of Compound A in vitro, AR degradation assays were conducted in VCaP cells and LNCaP prostate cancer cells that harbor AR amplification and the AR mutation (T878A) mutation, respectively.

AR D891H = biological target: T3, AR D891H (Homo sapiens, UniProt P10275, D891H); test: AR degradation in T-Rex-293 cell line, D891H (western blot); assay type: cell-based; conditions: T-Rex-293, western blot
T3 construct: expressed in transfected cells; host or cells: T-REx-293
T3 sequence (P10275 whole entry D891H): as the sequence (P10275 whole entry M750V) above, with V750M, D891H counted along it
Text: as §1, §2

[3] = safety in healthy volunteers (food/PPI study)
Text: The primary endpoints were AUCinf and Cmax. Additional parameters measured included AUClast and Tmax.
The study consisted of 2 independent cohorts: an open-label, randomized, 2-period, crossover Fed/Fasted Cohort to determine food effects; and an open-label, 2-period, fixed sequence PPI Cohort to evaluate interactions with esomeprazole.

[4] = Fed/Fasted Cohort, 200 mg, 14 healthy participants
[5] = healthy volunteer study, both cohorts

Q: Which “TGI relative to vehicle control” value (VCaP tumor xenograft; 0.1 mg/kg/day QD for 24 days, statistically insignificant) does the source give for COc1cc(O[C@H]2C(C)(C)[C@H](NC(=O)c3ccc(N4CCC(CN5CCN(c6ccc(C(=O)N[C@H]7CCC(=O)NC7=O)c(F)c6)CC5)CC4)cc3)C2(C)C)ccc1C#N [Compound A, 4-(4-((1-(4-(((1R,3R)-3-(4-cyano-3-methoxyphenoxy)-2,2,4,4-tetramethylcyclobutyl)carbamoyl)phenyl)piperidin-4-yl)methyl)piperazin-1-yl)-N—((S)-2,6-dioxopiperidin-3-yl)-2-fluorobenzamide] here?
A: 45%

Q: What about the “TGI relative to vehicle control” value (VCaP tumor xenograft; 0.3 mg/kg/day QD for 24 days, statistically insignificant) of the same molecule?
A: 49%

Q: What about the “TGI relative to vehicle control” value (VCaP tumor xenograft; 1 mg/kg/day QD for 24 days) of the same molecule?
A: 81%

Q: And the “TGI relative to vehicle control” value (VCaP tumor xenograft; 3 mg/kg/day QD for 24 days, oral gavage)?
A: 100%

Q: What about the “degradation of GSPT1, Aiolos, Ikaros, CK1α, and SALL4” value [1] of the same molecule?
A: did not lead to degradation

Q: And the “Mean (±SEM) prostate weights” value (prostate; 5 mg/kg/day orally)?
A: 673+105 mg

Q: What about the “Mean (±SEM) prostate weights” value (prostate; 15 mg/kg/day orally) of the same molecule?
A: 384 ± 47 mg

Q: And the “Mean (±SEM) prostate weights” value (prostate; 45 mg/kg/day orally)?
A: 422 ± 56 mg

Q: And the “prostate weight reduction compared with enzalutamide” value (prostate; all doses tested (5, 15, 45 mg/kg/day))?
A: reduced prostate weights to a greater degree at all doses tested

Q: What about the DC50 (AR M750V) of the same molecule?
A: 1.4 nM

Q: What about the DC50 [2] of the same molecule?
A: ≤ 1.3 nM

Q: What about the Dmax [2] of the same molecule?
A: ≥ 91%

Q: What about the DC50 (AR D891H) of the same molecule?
A: 3.9 nM

Q: And the “severity of TEAEs” value ([3]; Fed/Fasted Cohort)?
A: All TEAEs were Grade 1

Q: And the “headache (TEAE)” value [3, 4]?
A: 4 (28.6%) participants

Q: And the “participants reporting TEAEs” value [3, 4]?
A: 5 (35.7%) participants

Q: And the “participants with at least one TEAE considered related to Compound A” value [3, 4]?
A: 3 (21.4%) participants

Q: What about the TRAE dizziness ([3]; Fed/Fasted Cohort, Grade 1) of the same molecule?
A: 1 participant

Q: What about the TRAE fatigue ([3]; Fed/Fasted Cohort, Grade 1) of the same molecule?
A: 1 participant

Q: And the TRAE headache ([3]; Fed/Fasted Cohort, Grade 1)?
A: 2 participants

Q: And the “TEAEs of Grade 3 or higher” value ([3]; PPI Cohort)?
A: no TEAEs of Grade 3 or higher

Q: And the “participants reporting TEAEs” value ([3]; PPI Cohort, 300 mg, 16 healthy participants)?
A: 8 (50.0%) participants

Q: What about the “participants with Grade 2 events” value ([3]; PPI Cohort, pain in the extremity and CRP increased) of the same molecule?
A: 2 (12.5%) participants

Q: What about the “tolerability of a single oral dose” value ([3]; healthy male participants, fasting, fed, or with esomeprazole) of the same molecule?
A: generally well tolerated

Q: And the “deaths, SAEs, discontinuations due to AEs” value [3, 5]?
A: no deaths, SAEs, or participant discontinuations due to AEs

Q: And the “laboratory results, vital signs, physical examinations, 12-lead ECGs, C-SSRS” value [3, 5]?
A: no clinically significant findings
